From patent US6054435A, “6-O-substituted macrolides having antibacterial activity” (priority 1999, dated 2000)
Values after ≈ are worked out from the molar mass of the structure shown.

Tests used:
Experiment in all cases: in vitro antibacterial activity (MIC), agar dilution
Assay type in all cases: cell-based
[1] = test system: Staphylococcus aureus A5177; conditions: organism code BB; BHI agar, 35-37° C., 20 to 24 hours; unit assumed
In short: (§1)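 Test compound serially diluted in Brain Heart Infusion agar across twelve plates; inocula of 1:100 dilution (1:10 for slow growers such as Streptococcus) applied by Steers replicator. MIC taken visually as lowest concentration giving no growth, slight haze or sparse isolated colonies versus drug-free growth control.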

Escherichia coli DC-2 = conditions: organism code SS; BHI agar, 35-37° C., 20 to 24 hours; unit assumed
In short: as §1

[2] = test system: Streptococcus Pneumonia 5979; conditions: organism code ZZ; BHI agar, 35-37° C., 20 to 24 hours; unit assumed
In short: as §1

[3] = test system: Staphylococcus aureus CMX 642A; conditions: organism code DD; BHI agar, 35-37° C., 20 to 24 hours; unit assumed
In short: as §1

[4] = test system: Enterococcus faecium ATCC 8043; conditions: organism code II; BHI agar, 35-37° C., 20 to 24 hours; unit assumed
In short: as §1

[5] = test system: Micrococcus luteus ATCC 4698; conditions: organism code PP; BHI agar, 35-37° C., 20 to 24 hours; unit assumed
In short: (§2)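 Plates of BHI agar were prepared with twelve aqueous dilutions of compound, then inoculated at 1:100 dilution, or 1:10 for slow growers like Streptococcus. After incubation they were inspected, and the lowest concentration yielding no growth, slight haze or sparse colonies was recorded as MIC.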

[6] = test system: Streptococcus pyogenes EES61; conditions: organism code LL; BHI agar, 35-37° C., 20 to 24 hours; unit assumed
In short: as §1

[7] = test system: Streptococcus pyogenes PIU 2548; conditions: organism code NN; BHI agar, 35-37° C., 20 to 24 hours; unit assumed
In short: as §1

Candida albicans CCH 442 = conditions: organism code TT; BHI agar, 35-37° C., 20 to 24 hours; unit assumed
In short: as §1

[8] = test system: Staphylococcus aureus CMX 553; conditions: organism code FF; BHI agar, 35-37° C., 20 to 24 hours; unit assumed
In short: as §1

[9] = test system: Mycobacterium smegmatis ATCC 114; conditions: organism code UU; BHI agar, 35-37° C., 20 to 24 hours; unit assumed
In short: as §1

[10] = test system: Staphylococcus aureus A-5278; conditions: organism code CC; BHI agar, 35-37° C., 20 to 24 hours; unit assumed
In short: as §1

[11] = test system: Haemophilis Influenzae DILL AMP R; conditions: organism code WW; BHI agar, 35-37° C., 20 to 24 hours; unit assumed
In short: as §1

[12] = test system: Staphylococcus aureus ATCC 6538P; conditions: organism code AA; BHI agar, 35-37° C., 20 to 24 hours; unit assumed
In short: as §1

[13] = test system: Staphylococcus aureus 1775; conditions: organism code GG; BHI agar, 35-37° C., 20 to 24 hours; unit assumed
In short: as §1

[14] = test system: Staphylococcus epidermidis 3519; conditions: organism code HH; BHI agar, 35-37° C., 20 to 24 hours; unit assumed
In short: as §1

[15] = test system: Streptococcus Pneumonia GYR 1171; conditions: organism code YY; BHI agar, 35-37° C., 20 to 24 hours; unit assumed
In short: as §1

[16] = test system: Nocardia Asteroides ATCC9970; conditions: organism code VV; BHI agar, 35-37° C., 20 to 24 hours; unit assumed
In short: as §1

Escherichia coli SS = conditions: organism code RR; BHI agar, 35-37° C., 20 to 24 hours; unit assumed
In short: as §1

[17] = test system: Streptococcus Pneumonia ATCC6303; conditions: organism code XX; BHI agar, 35-37° C., 20 to 24 hours; unit assumed
In short: as §1

[18] = test system: Streptococcus Pneumonia 5649; conditions: organism code ZZA; BHI agar, 35-37° C., 20 to 24 hours; unit assumed
In short: as §1

[19] = test system: Micrococcus luteus ATCC 9341; conditions: organism code OO; BHI agar, 35-37° C., 20 to 24 hours; unit assumed
In short: as §2

[20] = test system: Streptococcus bovis A-5169; conditions: organism code JJ; BHI agar, 35-37° C., 20 to 24 hours; unit assumed
In short: as §1

[21] = test system: Streptococcus agalactiae CMX 508; conditions: organism code KK; BHI agar, 35-37° C., 20 to 24 hours; unit assumed
In short: as §1

Escherichia coli JUHL = conditions: organism code QQ; BHI agar, 35-37° C., 20 to 24 hours; unit assumed
In short: as §1

[22] = test system: Streptococcus pyogenes 930; conditions: organism code MM; BHI agar, 35-37° C., 20 to 24 hours; unit assumed
In short: as §1

[23] = test system: Staphylococcus aureus NCTC10649M; conditions: organism code EE; BHI agar, 35-37° C., 20 to 24 hours; unit assumed
In short: as §1

In the case of `CC[C@H]1OC(=O)[C@H](C)C(=O)[C@H](C)[C@@H](O[C@@H]2O[C@H](C)C[C@H](N(C)C)[C@H]2O)[C@](C)(OC/C=C/c2nc(-c3cccnc3)cs2)C[C@@H](C)C(=O)[C@H](C)[C@H]2NC(=O)O[C@@]21C` [Example 65], the MIC [1] is reported as 0.1 µg/mL (≈ 0.125 µM), the MIC (Escherichia coli DC-2) is reported as 25 µg/mL (≈ 31.3 µM) and the MIC [2] is reported as over 128 µg/mL. The MIC [3] was 0.1 µg/mL (≈ 0.125 µM), the MIC [4] was 0.02 µg/mL (≈ 0.025 µM) and the MIC [5] was 0.1 µg/mL (≈ 0.125 µM). For the same molecule, the MIC [6] was 0.01 µg/mL (≈ 0.0125 µM), the MIC [7] was 0.1 µg/mL (≈ 0.125 µM) and the MIC (Candida albicans CCH 442) was over 100 µg/mL. For the same molecule, the MIC [8] was 0.1 µg/mL (≈ 0.125 µM), the MIC [9] was 0.78 µg/mL (≈ 0.976 µM) and the MIC [10] was over 100 µg/mL. The MIC [11] was 2 µg/mL (≈ 2.5 µM), the MIC [12] was 0.1 µg/mL (≈ 0.125 µM) and the MIC [13] was over 100 µg/mL. For the same molecule, the MIC [14] was 0.1 µg/mL (≈ 0.125 µM), the MIC [15] was at most 0.004 µg/mL and the MIC [16] was 0.02 µg/mL (≈ 0.025 µM). The MIC (Escherichia coli SS) was 0.2 µg/mL (≈ 0.25 µM), the MIC [17] was 0.008 µg/mL (≈ 0.01 µM) and the MIC [18] was 0.25 µg/mL (≈ 0.313 µM). For the same molecule, the MIC [19] was 0.02 µg/mL (≈ 0.025 µM), the MIC [20] was at most 0.005 µg/mL and the MIC [21] was 0.01 µg/mL (≈ 0.0125 µM). For the same molecule, the MIC (Escherichia coli JUHL) was 100 µg/mL (≈ 125 µM), the MIC [22] was 50 µg/mL (≈ 62.6 µM) and the MIC [23] was 0.1 µg/mL (≈ 0.125 µM).

Molecule `CC[C@H]1OC(=O)[C@H](C)C(=O)[C@H](C)[C@@H](O[C@@H]2O[C@H](C)C[C@H](N(C)C)[C@H]2O)[C@](C)(OC/C=C/c2ccc(-c3cccnc3)s2)C[C@@H](C)C(=O)[C@H](C)[C@H]2NC(=O)O[C@@]21C` [Example 68] has an MIC [1] of 6.2 µg/mL (≈ 7.77 µM), an MIC (Escherichia coli DC-2) of over 100 µg/mL and an MIC [2] of 0.125 µg/mL (≈ 0.157 µM). For the same molecule, the MIC [3] was 0.39 µg/mL (≈ 0.489 µM), the MIC [4] was 0.05 µg/mL (≈ 0.0627 µM) and the MIC [5] was 0.39 µg/mL (≈ 0.489 µM). The MIC [6] was 0.05 µg/mL (≈ 0.0627 µM), the MIC [7] was 6.2 µg/mL (≈ 7.77 µM) and the MIC (Candida albicans CCH 442) was over 100 µg/mL. It also gave an MIC [8] of 0.39 µg/mL (≈ 0.489 µM), an MIC [9] of 3.1 µg/mL (≈ 3.88 µM) and an MIC [10] of over 100 µg/mL. It also gave an MIC [11] of 2 µg/mL (≈ 2.51 µM), an MIC [12] of 0.2 µg/mL (≈ 0.251 µM) and an MIC [13] of over 100 µg/mL. It also gave an MIC [14] of 0.39 µg/mL (≈ 0.489 µM), an MIC [15] of at most 0.004 µg/mL and an MIC [16] of 0.05 µg/mL (≈ 0.0627 µM). It also gave an MIC (Escherichia coli SS) of 0.39 µg/mL (≈ 0.489 µM), an MIC [17] of at most 0.004 µg/mL and an MIC [18] of 0.125 µg/mL (≈ 0.157 µM). The MIC [19] was 0.02 µg/mL (≈ 0.0251 µM), the MIC [20] was 0.02 µg/mL (≈ 0.0251 µM) and the MIC [21] was 0.02 µg/mL (≈ 0.0251 µM). For the same molecule, the MIC (Escherichia coli JUHL) was 100 µg/mL (≈ 125 µM), the MIC [22] was over 100 µg/mL and the MIC [23] was 0.39 µg/mL (≈ 0.489 µM).

For `CC[C@H]1OC(=O)[C@H](C)C(=O)[C@H](C)[C@@H](O[C@@H]2O[C@H](C)C[C@H](N(C)C)[C@H]2O)[C@](C)(OCC#Cc2ccc(-c3cccc([N+](=O)[O-])c3)s2)C[C@@H](C)C(=O)[C@H](C)[C@H]2NC(=O)O[C@@]21C` [Example 21], the MIC [1] was 0.05 µg/mL (≈ 0.0595 µM), the MIC (Escherichia coli DC-2) was over 100 µg/mL and the MIC [2] was 2 µg/mL (≈ 2.38 µM). For the same molecule, the MIC [3] was 0.05 µg/mL (≈ 0.0595 µM), the MIC [4] was 0.05 µg/mL (≈ 0.0595 µM) and the MIC [5] was 0.05 µg/mL (≈ 0.0595 µM). The MIC [6] was 0.02 µg/mL (≈ 0.0238 µM), the MIC [7] was 0.2 µg/mL (≈ 0.238 µM) and the MIC (Candida albicans CCH 442) was over 100 µg/mL. For the same molecule, the MIC [8] was 0.05 µg/mL (≈ 0.0595 µM), the MIC [9] was 0.2 µg/mL (≈ 0.238 µM) and the MIC [10] was over 100 µg/mL. It also gave an MIC [11] of 8 µg/mL (≈ 9.52 µM), an MIC [12] of 0.1 µg/mL (≈ 0.119 µM) and an MIC [13] of 100 µg/mL (≈ 119 µM). The MIC [14] was 0.2 µg/mL (≈ 0.238 µM), the MIC [15] was 0.03 µg/mL (≈ 0.0357 µM) and the MIC [16] was 0.2 µg/mL (≈ 0.238 µM). The MIC (Escherichia coli SS) was 0.2 µg/mL (≈ 0.238 µM), the MIC [17] was 0.03 µg/mL (≈ 0.0357 µM) and the MIC [18] was 0.5 µg/mL (≈ 0.595 µM). For the same molecule, the MIC [19] was 0.02 µg/mL (≈ 0.0238 µM), the MIC [20] was 0.02 µg/mL (≈ 0.0238 µM) and the MIC [21] was 0.02 µg/mL (≈ 0.0238 µM). The MIC (Escherichia coli JUHL) was over 100 µg/mL, the MIC [22] was 0.78 µg/mL (≈ 0.929 µM) and the MIC [23] was 0.1 µg/mL (≈ 0.119 µM).
